According to patent EP0585371B1, “AROMATIC OLIGOMERIC COMPOUNDS USEFUL AS MIMICS OF BIOACTIVE MACROMOLECULES” (RHONE-POULENC RORER INTERNATIONAL (HOLDINGS) INC., priority 1991, dated 1992):
“And” between values parts separate entries of the source, which are not always exact repeats. Equal values may be shown once. Read-outs that look alike come from different tables or passages of the source.

Experiments:
[1] = test system: normal pooled plasma; assay: Anticoagulation activity, Activated Partial Thromboplastin Time (APTT) test; settings: concentration required to double clotting time
Protocol: The following test measures anticoagulant activity of the oligomers of the present invention and utilizes the Activated Partial Thromboplastin Time (APTT) test, with the following procedures.
To an assay cuvette is added 100 µl of normal pooled plasma (George King Biomedical Inc., Kansas) and […] of a solution containing the test compound in aqueous 50 mM Tris hydrochloride at pH 7.5 (0.2 mg of sample in one ml buffer). The sample is placed in a MLA coagulation timer which automatically maintains the sample at 37°C for 2.5 minutes, 100 µl of actin activated cephaloplastin reagent is injected, kept 5 minutes, 100 µl of 35 mM CaCI is injected, and clot formation is determined photometrically and the clotting time recorded. Each example is examined at a variety of concentrations, generally from about .025 mg/ml to about 1 mg/ml, and the clotting times are graphed as a function of concentration. From the graphic results, the concentration required to double clotting time (ICDCT) is calculated by linear interpolation.

[2] = target: T1, vWF Binding to Gp1b (Homo sapiens, UniProt P04275+P07359); assay: Inhibition of ristocetin-induced binding of 125I-vWF to formalin-fixed platelets; settings: at 100 µg/ml; ristocetin 1.0 mg/ml
T1 construct: multimeric vWF (isolated from human plasma cryoprecipitate); Formalin-fixed platelets, prepared according to the method of MacFarlane; from tissue; host or cells: vWF from human plasma cryoprecipitate; GPIb on formalin-fixed platelets
T1 sequence (P04275 764-2813 limits assumed): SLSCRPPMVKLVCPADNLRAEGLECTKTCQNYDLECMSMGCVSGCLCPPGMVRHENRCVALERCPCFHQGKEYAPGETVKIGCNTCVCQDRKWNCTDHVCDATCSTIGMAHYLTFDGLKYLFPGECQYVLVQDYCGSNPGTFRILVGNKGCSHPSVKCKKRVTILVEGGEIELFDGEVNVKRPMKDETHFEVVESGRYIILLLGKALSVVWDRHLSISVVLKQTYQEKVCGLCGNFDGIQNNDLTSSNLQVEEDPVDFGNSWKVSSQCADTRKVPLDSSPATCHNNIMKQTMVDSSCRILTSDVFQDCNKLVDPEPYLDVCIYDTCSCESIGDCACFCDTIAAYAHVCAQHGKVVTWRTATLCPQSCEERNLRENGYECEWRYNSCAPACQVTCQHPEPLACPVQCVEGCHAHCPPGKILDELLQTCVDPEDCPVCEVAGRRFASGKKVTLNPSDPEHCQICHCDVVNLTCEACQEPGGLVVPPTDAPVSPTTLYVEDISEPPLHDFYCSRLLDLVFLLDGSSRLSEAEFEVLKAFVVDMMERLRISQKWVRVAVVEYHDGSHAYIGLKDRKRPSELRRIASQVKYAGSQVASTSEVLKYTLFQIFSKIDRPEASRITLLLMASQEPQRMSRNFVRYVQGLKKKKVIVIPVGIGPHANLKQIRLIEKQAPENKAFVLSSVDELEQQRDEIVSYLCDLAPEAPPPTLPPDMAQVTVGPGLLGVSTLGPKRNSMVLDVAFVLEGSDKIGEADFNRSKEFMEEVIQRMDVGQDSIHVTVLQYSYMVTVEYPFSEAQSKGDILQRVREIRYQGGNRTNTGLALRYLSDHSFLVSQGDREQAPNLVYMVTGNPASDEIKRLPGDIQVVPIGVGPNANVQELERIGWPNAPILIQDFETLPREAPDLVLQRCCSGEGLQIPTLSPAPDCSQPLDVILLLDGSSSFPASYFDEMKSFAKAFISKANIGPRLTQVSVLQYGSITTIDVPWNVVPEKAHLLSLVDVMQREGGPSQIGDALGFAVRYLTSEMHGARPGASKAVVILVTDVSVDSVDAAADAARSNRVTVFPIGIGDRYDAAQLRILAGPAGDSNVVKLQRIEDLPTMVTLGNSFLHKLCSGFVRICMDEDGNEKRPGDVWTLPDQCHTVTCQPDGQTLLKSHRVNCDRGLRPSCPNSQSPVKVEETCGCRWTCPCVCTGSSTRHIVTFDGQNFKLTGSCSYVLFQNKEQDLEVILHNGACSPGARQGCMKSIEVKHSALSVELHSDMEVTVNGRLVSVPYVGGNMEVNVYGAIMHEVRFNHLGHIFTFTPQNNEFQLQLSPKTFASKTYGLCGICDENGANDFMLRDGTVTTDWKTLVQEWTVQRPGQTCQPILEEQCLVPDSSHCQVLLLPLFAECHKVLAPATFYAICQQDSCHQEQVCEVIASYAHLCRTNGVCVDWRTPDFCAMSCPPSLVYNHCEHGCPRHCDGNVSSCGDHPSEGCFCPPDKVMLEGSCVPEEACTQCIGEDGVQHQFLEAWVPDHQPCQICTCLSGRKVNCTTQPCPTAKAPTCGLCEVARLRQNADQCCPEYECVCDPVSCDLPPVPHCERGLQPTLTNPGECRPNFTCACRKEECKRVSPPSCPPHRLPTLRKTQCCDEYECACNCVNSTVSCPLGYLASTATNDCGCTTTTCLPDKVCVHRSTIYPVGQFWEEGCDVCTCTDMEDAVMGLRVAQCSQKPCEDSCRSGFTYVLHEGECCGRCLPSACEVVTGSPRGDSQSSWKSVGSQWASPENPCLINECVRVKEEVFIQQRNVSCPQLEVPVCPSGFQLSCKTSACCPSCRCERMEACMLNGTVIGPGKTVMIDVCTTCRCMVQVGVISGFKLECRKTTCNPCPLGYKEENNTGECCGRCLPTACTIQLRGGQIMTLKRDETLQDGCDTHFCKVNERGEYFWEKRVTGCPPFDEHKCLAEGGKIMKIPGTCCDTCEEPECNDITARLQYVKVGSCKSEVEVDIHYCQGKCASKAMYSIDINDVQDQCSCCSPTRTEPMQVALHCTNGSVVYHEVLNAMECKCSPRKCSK
T1 sequence (P07359 17-652): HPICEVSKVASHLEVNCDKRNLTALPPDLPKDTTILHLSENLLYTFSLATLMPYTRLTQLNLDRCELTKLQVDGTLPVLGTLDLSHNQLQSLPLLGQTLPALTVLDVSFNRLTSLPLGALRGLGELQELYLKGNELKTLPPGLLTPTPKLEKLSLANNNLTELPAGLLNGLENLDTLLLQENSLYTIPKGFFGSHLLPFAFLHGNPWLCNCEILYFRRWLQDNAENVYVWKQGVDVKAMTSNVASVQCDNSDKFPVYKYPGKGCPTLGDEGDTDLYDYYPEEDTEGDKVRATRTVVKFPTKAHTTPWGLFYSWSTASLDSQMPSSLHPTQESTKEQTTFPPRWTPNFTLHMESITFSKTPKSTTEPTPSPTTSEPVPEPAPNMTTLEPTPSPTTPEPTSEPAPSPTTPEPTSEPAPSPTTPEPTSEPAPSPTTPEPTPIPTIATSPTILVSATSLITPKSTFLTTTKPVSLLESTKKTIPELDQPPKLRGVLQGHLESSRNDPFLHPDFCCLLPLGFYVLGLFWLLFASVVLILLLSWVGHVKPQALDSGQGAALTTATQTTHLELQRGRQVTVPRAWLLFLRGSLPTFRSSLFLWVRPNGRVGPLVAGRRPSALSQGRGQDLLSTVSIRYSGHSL
Protocol: The binding of vWf (vonWillebrand Factor) to glycoprotein Ib is measured in one of two experimental systems, in the presence of either ristocetin or botrocetin as modulators of binding. The ristocetin modulated binding is described herein.
Formalin-fixed platelets, prepared according to the method of MacFarlane, D. et al., Thromb. Diath. Haemorrh. 34, 306-308 (1975), were preincubated at room temperature for 15 minutes with specified dilutions of oligomers according to the present invention. Ristocetin, (Sigma, St. Louis, MO) diluted to a final concentration of 1.0 mg/ml, and ^125I-labelled multimeric vWF (isolated from human plasma cryoprecipitate according to the method of Fulcher, C.A. et al. Proc. Natl. Acad. Sci. USA, 79, 1648-1652 (1982), and labelled according to the method of Fraker, P.J. et al. Biochem. Biophys. Res. Commun., 80, 849-857 (1978)) were then added to the incubation mixture, and the amount of ^125I- vWF bound to the platelets was determined. ^125I-vWF binding to the platelets was referenced against 100% binding which was defined as the amount of ^125I- vWF bound in the absence of added oligomer compound. The method for measuring vWF binding is reported in detail in Ruggeri et al., J. Clin. Invest., 72, 1-12, (1983), herein incorporated by reference.

[3] = target: T2, Human neutrophil elastase (Homo sapiens, UniProt P08246); assay: Human Granulocyte Elastase Inhibition Assay; type: biochemical; settings: substrate S-2484, pH 8.3
T2 construct: purchased ICN Biochemical
T2 sequence (P08246 30-267): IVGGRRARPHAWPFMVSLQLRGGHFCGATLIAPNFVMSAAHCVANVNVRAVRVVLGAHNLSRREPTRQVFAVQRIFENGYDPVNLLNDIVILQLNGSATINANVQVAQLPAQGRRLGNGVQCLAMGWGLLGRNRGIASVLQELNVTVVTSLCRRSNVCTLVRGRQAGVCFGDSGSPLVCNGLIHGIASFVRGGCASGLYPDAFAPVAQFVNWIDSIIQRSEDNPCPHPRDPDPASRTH
Protocol: The Human Granulocyte Elastase Inhibition assay is a standard test procedure and is essentially that of Kramps, et al., "L-Pyroglutamyl-L-prolyl-L-valine-p-nitroanilide, a highly specific substrate for granulocyte elastase", Scand. J. clin. Lab. Invest. 43, 427-432 (1983).
A stock solution of 8.0 mM L-pyroglutamyl-L-prolyl-L-valine-p-nitroanilide (S-2484, obtained from Kabi) in dimethylsulfoxide is diluted to 2.0 mM in 0.03 M Tris buffer, pH 8.3, to give the working substrate solution. Human neutrophil elastase (obtained from ICN Biochemical) is diluted in the same buffer to 1 unit/ml to give the working enzyme solution.
A control assay is run in which a solution of 10 µl of buffer and 10µl of working enzyme solution is incubated at room temperature for 1 minute and 330 µl of buffer and 50 µl of working substrate solution is then added. The increase in absorbance (ΔOD/min) at 405 nm is measured.
In the experimental assay 10µl of a solution containing a compound of the present invention (in concentrations ranging from 1 mg/ml to 0.1 µg/ml), or other inhibitor to be tested, in buffer is substituted for the 10 µl of buffer with which the enzyme is incubated in the control assay and the procedure followed as for the control assay above. The ΔOD/min is measured and the result expressed as percentage inhibition for the given concentration of inhibitor as compared with the ΔOD/min for the control. Percent inhibition versus concentration of compound of the present invention or other inhibitor is plotted and the data extrapolated to give the concentration required for 50% inhibition of the enzyme (IC50).

| inhibition at 100 µg/mL [2] | IC50 ([3]; read-out: IC50 (converted)) | Structure (SMILES) | APTT ICDCT [1] | IC50 [3] | IC50 ([3]; unit printed in the cell of the nM column, read-out: IC50 (converted)) |
| --- | --- | --- | --- | --- | --- |
| 21% | > 1400 nM | O=C(O)CCc1cc(Cc2cc(O)ccc2CCC(=O)O)c(O)cc1CCc1cc(O)c(Cc2cc(O)ccc2CCC(=O)O)cc1CCC(=O)O [Ex 3, 1,2-bis-[2-(2-carboxyethyl)-4-[2-(2-carboxyethyl)-5-hydroxybenzyl]-5-hydroxyphenyl]ethane] | 700 µg/mL |  |  |
|  | 135 nM and 134 nM | O=C(O)COc1cc(Cc2cc(O)ccc2OCC(=O)O)c(O)cc1CCc1cc(O)c(Cc2cc(O)ccc2OCC(=O)O)cc1OCC(=O)O [Ex 17, 1 ,2-bis-[[2-carboxymethyloxy-5-hydroxy-4-(5-hydroxy-2-carboxymethyloxy)benzyl]phenyl]ethane] | 580 µg/mL |  |  |
|  |  | O=C(O)COc1cc(Cc2cc(OCc3ccccc3)ccc2OCC(=O)O)c(O)cc1CCc1cc(O)c(Cc2cc(OCc3ccccc3)ccc2OCC(=O)O)cc1OCC(=O)O [Ex 20, 1,2-bis-[[2-carboxymethyloxy-5-hydroxy-4-(5-benzyloxy-2-carboxymethyloxy)benzyl]phenyl]ethane] | 555 µg/mL | 780 nM and 779 nM |  |
|  |  | CCc1cc(OCC(=O)O)cc(Cc2cc(OCC(=O)O)cc(Cc3cc(OCC(=O)O)cc(Cc4cc(OCC(=O)O)ccc4OC)c3OC)c2OC)c1OC [Ex 22, 5-[3-[3-[[5-carboxymethyloxy-2-methoxy]benzyl]-[5-carboxymethyloxy-2-methoxy]benzyl]-[5-carboxymethyloxy-2-methoxy]benzyl]-3-ethyl-4-methoxyphenoxyacetic acid] | >315 µg/mL |  | > 3e+06 nM |

| Structure (SMILES) | inhibition at 100 µg/mL [2] | IC50 ([3]; read-out: IC50 (converted)) | APTT ICDCT [1] | IC50 [3] | IC50 ([3]; unit printed in the cell of the nM column, read-out: IC50 (converted)) |
| --- | --- | --- | --- | --- | --- |
| O=C(O)COc1cc(Cc2cc(OCc3ccccc3)c(Cc3cc(OCc4ccccc4)c(Cc4cc(O)ccc4OCC(=O)O)cc3OCC(=O)O)cc2OCC(=O)O)c(OCc2ccccc2)cc1CO [Ex 16, 4-benzyloxy-5-[4-[4-[[2-carboxymethyloxy-5-hydroxy]benzyl]-[5-benzyloxy-2-carboxymethyloxy]benzyl]-[5-benzyloxy-2-carboxymethyloxy]benzyl]-2-hydroxymethylphenoxyacetic acid] |  | 330 nM and 327 nM | 360 µg/mL |  |  |
